Literature values in patent EP3888461A1, “NON-AQUEOUS DISPERSIONS COMPRISING INHIBITORS OF HYDROXYPHENYLPYRUVATE-DIOXYGENASE AND CITRIC ACID” (Bayer AG, priority 2020, dated 2021).

Settings: commercially available brands of surfactants of structure (II)

| Log P | Substance |
| --- | --- |
| 0.26 | Polyoxyethylene (16) sorbitan monolaurate [Tween® 24] |
| -0.55 | Tween® 20 |
| 2.71 | Tween® 21 |
| 1.47 | Tween® 40 |
| 2.48 | Tween® 60 |
| 1.99 | Tween® 80 |
